Measurements: patent publication US20040047865A1, “Compositions and their uses” (priority 1995, published 2004)

Assays:
[1] = test system: XNA IgG, normal porcine endothelial cells (PAE-68#4); assay: Two stage chromium release assay, inhibition of lysis by affinity-isolated IgG in the presence of sugars (FIG. 3); type: cell-based; conditions: IgG 80 μg/ml
Description: (§1) Briefly normal porcine endothelial cells were grown to confluence in 96well plates before being washed and labelled with ^51chromium. Excess label was removed and the cells were exposed to different concentrations of XNA. Unbound antibody was removed and 1/8 baby rabbit complement added for 1 hour at 37° C. Cell lysis was expressed as a percentage of the total counts associated with the endothelial cells, which could be detected in the medium after incubation of the cells with complement. […] Affinity-isolated IgM (10 μg/ml) or IgG (80 μg/ml) was incubated with endothelial cells as before in the presence of varying concentrations of four different sugar preparations. The cells were then washed and exposed to baby rabbit complement as previously described.

[2] = test system: porcine endothelial cells; conditions: Neethling et al 1994; cited from earlier work
[3] = test system: XNA IgM, normal porcine endothelial cells (PAE-68#4); assay: Two stage chromium release assay, inhibition of lysis by affinity-isolated IgM in the presence of sugars (FIG. 3); type: cell-based; conditions: IgM 10 μg/ml
Description: as §1

[4] = test system: pig endothelial cells; conditions: infusion into baboons; Ye et al 1994; cited from earlier work

Compound	inhibition of cell lysis / IgG binding [1]	inhibition of the cytotoxic effects of human serum on porcine endothelial cells [2]	inhibition of cell lysis / XNA IgM binding [3]	protection of pig endothelial cells from killing by serum of infused baboons [4]
OC[C@H]1O[C@H](O[C@H]2[C@@H](O)[C@@H](CO)OC(O)[C@@H]2O)[C@H](O)[C@@H](O)[C@H]1O (stereo partly shown) [B-disaccharide, Galα1,3Gal]	minimal difference	best inhibitors		
CC(=O)N[C@H]1C(O)O[C@H](CO)[C@@H](O[C@@H]2O[C@H](CO)[C@H](O)[C@H](O[C@H]3O[C@H](CO)[C@H](O)[C@H](O)[C@H]3O)[C@H]2O)[C@@H]1O (stereo partly shown) [B-trisaccharide, Galα1,3Galβ1,4GlcNAc]	minimal difference	best inhibitors	superior to B-disaccharide	
OC[C@H]1O[C@H](OCC2O[C@@H](O)[C@H](O)[C@@H](O)[C@@H]2O)[C@H](O)[C@@H](O)[C@H]1O (stereo partly shown) [melibiose]				A level of protection was afforded
arabinogalactan				A level of protection was afforded
